# Experimental data as given in patent US10550105B2 (Ribon Therapeutics Inc., priority 2018, dated 2020).
# Biological target: PARP7 (Homo sapiens (Human), UniProt Q7Z3E1)
# Assay: Enzymatic assay for inhibition of PARP7: TR-FRET displacement of biotinylated Probe A from the TIPARP active site
# Assay type: binding
# Conditions: Table A-1
# In short: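 Percent inhibition derives from the ratio of 665 to 615 nm emission, which reports how much Probe A remains bound to TIPARP. Plates sat 30 min at 25° C before the time-resolved read (320 nm excitation).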
# Sequence of PARP7 (Q7Z3E1 whole entry): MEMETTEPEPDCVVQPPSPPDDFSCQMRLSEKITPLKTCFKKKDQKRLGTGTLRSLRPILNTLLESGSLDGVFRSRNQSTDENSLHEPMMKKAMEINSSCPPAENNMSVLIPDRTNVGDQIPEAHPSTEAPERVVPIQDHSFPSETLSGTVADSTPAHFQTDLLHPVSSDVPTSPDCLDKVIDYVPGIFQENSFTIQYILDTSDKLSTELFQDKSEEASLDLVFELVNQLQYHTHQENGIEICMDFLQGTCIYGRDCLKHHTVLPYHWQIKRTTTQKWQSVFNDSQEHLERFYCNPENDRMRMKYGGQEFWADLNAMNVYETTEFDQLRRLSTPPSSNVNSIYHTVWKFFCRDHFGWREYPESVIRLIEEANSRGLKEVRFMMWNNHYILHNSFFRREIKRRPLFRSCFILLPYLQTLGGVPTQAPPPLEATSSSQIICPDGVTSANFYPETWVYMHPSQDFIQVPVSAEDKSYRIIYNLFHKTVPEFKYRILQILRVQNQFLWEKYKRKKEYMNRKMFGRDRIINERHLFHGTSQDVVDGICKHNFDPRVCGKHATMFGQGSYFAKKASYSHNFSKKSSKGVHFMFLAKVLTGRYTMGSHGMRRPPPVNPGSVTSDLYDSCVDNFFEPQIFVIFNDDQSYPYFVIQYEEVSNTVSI
row,Compound,IC50 [nM]
1,"O=c1[nH]ncc(N2Cc3ccccc3C2CO)c1C(F)(F)F (stereo not shown) [Example 235, 5-(1-(Hydroxymethyl)isoindolin-2-yl)-4-(trifluoromethyl)pyridazin-3(2H)-one]",≥ 1000
2,"O=C(C[C@H]1CC[C@@H](COc2cn[nH]c(=O)c2C(F)(F)F)O1)N1CCN(c2ccc(C(F)(F)F)cn2)CC1 (single isomer, unassigned) [Example 545 Isomer B]",100 to 1000
3,"N#Cc1ccc(N2CCN(C(=O)CCCCCOc3cn[nH]c(=O)c3C(F)(F)F)CC2)nc1 [Example 512, 6-[4-(6-[[6-Oxo-5-(trifluoromethyl)-1,6-dihydropyridazin-4-yl]oxy]hexanoyl)piperazin-1-yl]pyridine-3-carbonitrile]",< 100
4,"CN1CCC(Oc2cccc3c2CN(c2cn[nH]c(=O)c2Cl)C3)CC1 [Example 257, 4-Chloro-5-(4-((1-methylpiperidin-4-yl)oxy)isoindolin-2-yl)pyridazin-3(2H)-one]",≥ 1000
5,"O=c1[nH]ncc(N2Cc3cccc(OC4CCN(C(c5ccccc5)c5ccccc5)CC4)c3C2)c1C(F)(F)F [Example 27, 5-(4-[[1-(diphenylmethyl)piperidin-4-yl]oxy]-2,3-dihydro-1H-isoindol-2-yl)-4-(trifluoromethyl)-2,3-dihydropyridazin-3-one]",100 to 1000
6,"N#Cc1ccc(N2CCCC(NC(=O)CCOC[C@@H]3CCCN3c3cn[nH]c(=O)c3C(F)(F)F)C2)nc1 (stereo partly drawn) [Example 114, N-[1-(5-cyanopyridin-2-yl)piperidin-3-yl]-3-[[(2S)-1-[6-oxo-5-(trifluoromethyl)-1,6-dihydropyridazin-4-yl]pyrrolidin-2-yl]methoxy]propanamide]",≥ 1000
7,"CSc1c(N2Cc3ccccc3C2)cn[nH]c1=O [Example 189, 5-(Isoindolin-2-yl)-4-(methylthio)pyridazin-3(2H)-one]",100 to 1000
8,"C[C@@H]1CN(c2ccc(C#N)cn2)CCN1C(=O)CCOC[C@@H]1CCCN1c1cn[nH]c(=O)c1C(F)(F)F [Example 100A, 6-[(3R)-3-methyl-4-(3-[[(2S)-1-[6-oxo-5-(trifluoromethyl)-1,6-dihydropyridazin-4-yl]pyrrolidin-2-yl]methoxy]propanoyl)piperazin-1-yl]pyridine-3-carbonitrile]",< 100
9,"O=c1[nH]ncc(N2Cc3cc(F)c(OCC4CCCNC4)cc3C2)c1C(F)(F)F (stereo not shown) [Example 44, 5-[5-fluoro-6-(piperidin-3-ylmethoxy)-2,3-dihydro-1H-isoindol-2-yl]-4-(trifluoromethyl)-2,3-dihydropyridazin-3-one]",< 100
10,"N#Cc1ccc(N2CCN(C(=O)CCOCc3cccc4c3CN(c3cn[nH]c(=O)c3C(F)(F)F)C4)CC2)nc1 [Example 495, 6-(4-(3-((2-(6-Oxo-5-(trifluoromethyl)-1,6-dihydropyridazin-4-yl)isoindolin-4-yl)methoxy)propanoyl)piperazin-1-yl)nicotinonitrile]",< 100
11,"COC[C@@H](COCCC(=O)N1CCN(c2ccc(C#N)cn2)CC1)Nc1cn[nH]c(=O)c1C(F)(F)F (single isomer, unassigned) [Example 518B]",< 100
12,"C[C@@H](COCCC(=O)N1CCN(c2ncc(C(C)(C)C)cn2)CC1)Nc1cn[nH]c(=O)c1C(F)(F)F [Example 623, (S)-5-((1-(3-(4-(5-(Tert-butyl)pyrimidin-2-yl)piperazin-1-yl)-3-oxopropoxy)propan-2-yl)amino)-4-(trifluoromethyl)pyridazin-3(2H)-one]",< 100
13,"N#Cc1ccc(N2CCN(C(=O)c3cncc(OCC4c5ccccc5CN4c4cn[nH]c(=O)c4C(F)(F)F)c3)CC2)nc1 (stereo not shown) [Example 352, 6-(4-(5-((2-(6-Oxo-5-(trifluoromethyl)-1,6-dihydropyridazin-4-yl)isoindolin-1-yl)methoxy)nicotinoyl)piperazin-1-yl)nicotinonitrile]",< 100
14,"CC(=O)NCC1c2ccccc2CN1c1cn[nH]c(=O)c1C(F)(F)F (stereo not shown) [Example 264, N-((2-(6-Oxo-5-(trifluoromethyl)-1,6-dihydropyridazin-4-yl)isoindolin-1-yl)methyl)acetamide]",≥ 1000
15,"CN(CCC(=O)N1CCN(c2ccc(C#N)cn2)CC1)C[C@@H]1CCCN1c1cn[nH]c(=O)c1C(F)(F)F [Example 136, (S)-6-(4-(3-(methyl((1-(6-oxo-5-(trifluoromethyl)-1,6-dihydropyridazin-4-yl)pyrrolidin-2-yl)methyl)amino)propanoyl)piperazin-1-yl)nicotinonitrile]",< 100
16,"CC(=O)NCCOc1cccc2c1CN(c1cn[nH]c(=O)c1Cl)C2 [Example 241, N-(2-((2-(5-Chloro-6-oxo-1,6-dihydropyridazin-4-yl)isoindolin-4-yl)oxy)ethyl)acetamide]",100 to 1000
17,"N#Cc1ccc(N2CCN(C(=O)c3cc(OC[C@@H]4c5ccccc5CN4c4cn[nH]c(=O)c4C(F)(F)F)ccn3)CC2)nc1 [Example 357, (S)-6-(4-(4-((2-(6-Oxo-5-(trifluoromethyl)-1,6-dihydropyridazin-4-yl)isoindolin-1-yl)methoxy)picolinoyl)piperazin-1-yl)nicotinonitrile]",< 100
18,"N#Cc1cnc(N2CCN(C(=O)c3cc(OCC4c5ccccc5CN4c4cn[nH]c(=O)c4C(F)(F)F)ccn3)CC2)nc1 (stereo not shown) [Example 380, 2-(4-(4-((2-(6-Oxo-5-(trifluoromethyl)-1,6-dihydropyridazin-4-yl)isoindolin-1-yl)methoxy)picolinoyl)piperazin-1-yl)pyrimidine-5-carbonitrile]",< 100
19,"O=c1[nH]ncc(N2Cc3cccc(OCCN4CCCCC4)c3C2)c1Cl [Example 256, 4-Chloro-5-(4-(2-(piperidin-1-yl)ethoxy)isoindolin-2-yl)pyridazin-3(2H)-one]",≥ 1000
20,"CN(CCC(=O)N1CCN(c2ccc(C#N)cn2)CC1)C[C@H]1c2ccccc2CN1c1cn[nH]c(=O)c1C(F)(F)F [Example 428, (R)-6-(4-(3-(Methyl((2-(6-oxo-5-(trifluoromethyl)-1,6-dihydropyridazin-4-yl)isoindolin-1-yl)methyl)amino)propanoyl)piperazin-1-yl)nicotinonitrile]",100 to 1000

# Next, values leading:
row,IC50 [nM],Compound
1,< 100,"C[C@H]1C[C@@H](COc2cccc(C(=O)N3CCN(c4ccc(C#N)cn4)CC3)c2)N(c2cn[nH]c(=O)c2C(F)(F)F)C1 [Example 70, 6-[4-[(3-[[(2S,4S)-4-methyl-1-[6-oxo-5-(trifluoromethyl)-1,6-dihydropyridazin-4-yl]pyrrolidin-2-yl]methoxy]phenyl)carbonyl]piperazin-1-yl]pyridine-3-carbonitrile]"
2,< 100,"O=C(CCNC[C@@H]1c2ccccc2CN1c1cn[nH]c(=O)c1C(F)(F)F)N1CCN(c2ncc(Cl)cn2)CC1 [Example 627, (S)-5-(1-(((3-(4-(5-Chloropyrimidin-2-yl)piperazin-1-yl)-3-oxopropyl)amino)methyl)isoindolin-2-yl)-4-(trifluoromethyl)pyridazin-3(2H)-one]"
3,< 100,"CN1CCC(Oc2cc3c(cc2F)CN(c2cn[nH]c(=O)c2C(F)(F)F)C3)C1 (stereo not shown) [Example 55, 5-[5-fluoro-6-[(1-methylpyrrolidin-3-yl)oxy]-2,3-dihydro-1H-isoindol-2-yl]-4-(trifluoromethyl)-2,3-dihydropyridazin-3-one]"
4,< 100,"C[C@@H](CN(C)CCC(=O)N1CCN(c2ncc(C(F)(F)F)cn2)CC1)Oc1cn[nH]c(=O)c1C(F)(F)F [Example 616, (S)-5-((1-(Methyl(3-oxo-3-(4-(5-(trifluoromethyl)pyrimidin-2-yl)piperazin-1-yl)propyl)amino)propan-2-yl)oxy)-4-(trifluoromethyl)pyridazin-3(2H)-one]"
5,< 100,"N#Cc1ccc(NCCC(=O)Nc2cncc(OC[C@@H]3CCCN3c3cn[nH]c(=O)c3C(F)(F)F)c2)nc1 [Example 87, 3-[(5-cyanopyridin-2-yl)amino]-N-(5-[[(2S)-1-[6-oxo-5-(trifluoromethyl)-1,6-dihydropyridazin-4-yl]pyrrolidin-2-yl]methoxy]pyridin-3-yl)propanamide]"
6,< 100,"C[C@@H](COCCC(=O)N1CCC(Oc2ncc(C#N)s2)C1)Nc1cn[nH]c(=O)c1C(F)(F)F (stereo partly drawn) [Example 718, 2-((1-(3-((S)-2-((6-Oxo-5-(trifluoromethyl)-1,6-dihydropyridazin-4-yl)amino)propoxy)propanoyl)pyrrolidin-3-yl)oxy)thiazole-5-carbonitrile]"
7,< 100,"N#Cc1ccc(N2CCN(C(=O)C[C@@H](N)COC[C@@H]3CCCN3c3cn[nH]c(=O)c3C(F)(F)F)CC2)nc1 [Example 145A, 6-[4-[(3R)-3-amino-4-[[(2S)-1-[6-oxo-5-(trifluoromethyl)-1,6-dihydropyridazin-4-yl]pyrrolidin-2-yl]methoxy]butanoyl]piperazin-1-yl]pyridine-3-carbonitrile; formic acid]"
8,< 100,"C[C@@H](COCCS(=O)(=O)N1CCN(c2ncc(C(F)(F)F)s2)CC1)Nc1cn[nH]c(=O)c1C(F)(F)F [Example 726, (S)-4-(Trifluoromethyl)-5-((1-(2-((4-(5-(trifluoromethyl)thiazol-2-yl)piperazin-1-yl)sulfonyl)ethoxy)propan-2-yl)amino)pyridazin-3(2H)-one]"
9,< 100,"O=c1[nH]ncc(N2Cc3ccc(OC4CCN(C(c5ccccc5)c5ccccc5)CC4)cc3C2)c1C(F)(F)F [Example 28, 5-(5-[[1-(diphenylmethyl)piperidin-4-yl]oxy]-2,3-dihydro-1H-isoindol-2-yl)-4-(trifluoromethyl)-2,3-dihydropyridazin-3-one]"
10,< 100,"C[C@@H](O)[C@@H](COCCC(=O)N1CCN(c2ncc(C(F)(F)F)cn2)CC1)Nc1cn[nH]c(=O)c1C(F)(F)F [Example 610, 5-[[(2R,3R)-3-Hydroxy-1-(3-oxo-3-[4-[5-(trifluoromethyl)pyrimidin-2-yl]piperazin-1-yl]propoxy)butan-2-yl]amino]-4-(trifluoromethyl)-2,3-dihydropyridazin-3-one]"
11,< 100,"COC[C@@H](COCCC(=O)N1CCN(c2ccc(C(F)(F)F)cn2)CC1)Nc1cn[nH]c(=O)c1C(F)(F)F [Example 594, 5-[[(2S)-1-Methoxy-3-(3-oxo-3-[4-[5-(trifluoromethyl)pyridin-2-yl]piperazin-1-yl]propoxy)propan-2-yl]amino]-4-(trifluoromethyl)-2,3-dihydropyridazin-3-one]"
